SMILES strings stand for the structures.

One assay has as its target T1, human CD38 (Homo sapiens, UniProt P28907).
T1 construct: purchased Bio-Techne GmbH AVI2404
T1 sequence (P28907 1-300): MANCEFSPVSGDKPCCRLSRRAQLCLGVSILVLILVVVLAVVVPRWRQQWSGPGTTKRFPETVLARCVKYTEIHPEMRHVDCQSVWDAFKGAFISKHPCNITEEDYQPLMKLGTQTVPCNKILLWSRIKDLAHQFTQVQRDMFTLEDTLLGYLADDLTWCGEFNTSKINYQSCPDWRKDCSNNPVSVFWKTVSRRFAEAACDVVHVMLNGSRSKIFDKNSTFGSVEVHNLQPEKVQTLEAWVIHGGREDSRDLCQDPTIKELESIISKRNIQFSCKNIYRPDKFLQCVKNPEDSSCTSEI
Nature of the assay: NAD+ cyclase activity assay with human recombinant CD38 protein (ε-NAD fluorescence). The class given is biochemical. To be noted: 1.9 nM human CD38, substrate ε-NAD, 30 min preincubation, fluorescence 300/410 nm. Put shortly: (§1)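 Twelve-point threefold compound dilutions were given 30 min at room temperature with 0.6 nM mouse or 1.9 nM human CD38 before […] ε-NAD was added (pH 7.5 HEPES/sucrose/Tween buffer). The rate came from the linear-phase slope of ex 300/em 410 nm fluorescence against vehicle and no-CD38 controls.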

The next assay has as its target T2, mouse CD38 (Mus musculus, UniProt P56528).
T2 construct: purchased Bio-Techne GmbH 4947-AC
T2 sequence (P56528 1-304): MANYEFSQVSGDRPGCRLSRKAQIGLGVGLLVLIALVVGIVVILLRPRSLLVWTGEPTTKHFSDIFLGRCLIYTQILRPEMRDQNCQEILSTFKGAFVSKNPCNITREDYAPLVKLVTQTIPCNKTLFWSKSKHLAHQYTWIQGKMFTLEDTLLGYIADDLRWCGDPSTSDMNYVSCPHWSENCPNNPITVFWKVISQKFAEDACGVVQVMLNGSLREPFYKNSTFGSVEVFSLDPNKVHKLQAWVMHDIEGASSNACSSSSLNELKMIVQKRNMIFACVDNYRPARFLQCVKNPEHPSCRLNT
In words: NAD+ cyclase activity assay with mouse recombinant CD38 protein (ε-NAD fluorescence). In kind it is biochemical. To be noted: 0.6 nM mouse CD38, substrate ε-NAD, 30 min preincubation, fluorescence 300/410 nm. Put shortly:
as §1

Broadly, the IC50 is the point on the concentration scale where inhibition reaches its midpoint. On to `O=C(NC1CCC(F)(F)CC1)c1cc2c(c(F)c1F)OCCn1cncc1-2` [Compound 154A, N-(4,4-Difluorocyclohexyl)-8,9-difluoro-5,6-dihydrobenzo[f]imidazo[1,5-d][1,4]oxazepine-10-carboxamide], for which the values for the IC50 at human CD38 and at mouse CD38 were less than 0.03 µM and less than 0.001 µM, respectively.
Regarding `O=C(NC1CCC(CC(F)(F)F)CC1)c1cc(F)c2c(c1)-c1cncn1CCO2` (centres unmarked) [Compound 164A, 8-Fluoro-N-(4-(2,2,2-trifluoroethyl)cyclohexyl)-5,6-dihydrobenzo[f]imidazo[1,5-d][1,4]oxazepine-10-carboxamide], the values for the IC50 on human CD38 and on mouse CD38 were less than 0.03 µM and 0.001 to 0.01 µM, respectively.
For `O=C(NC1CCC(F)(F)CC1)c1cc(Cl)c2c(c1)-c1cncn1CCO2` [Compound 137A, 8-Chloro-N-(4,4-difluorocyclohexyl)-5,6-dihydrobenzo[f]imidazo[1,5-d][1,4]oxazepine-10-carboxamide], the IC50 at human CD38 is less than 0.03 µM; at mouse CD38 it was less than 0.001 µM.
Consider `CC(C)(N[C@H]1CC[C@H](NC(=O)c2ccc3c(c2)-c2cncn2CCO3)CC1)C(F)(F)F` [Compound 88A, N-((1r,4r)-4-((1,1,1-Trifluoro-2-methylpropan-2-yl)amino)cyclohexyl)-5,6-dihydrobenzo[f]imidazo[1,5-d][1,4]oxazepine-10-carboxamide], for which the IC50 at human CD38 was less than 0.03 µM; on mouse CD38, less than 0.001 µM.
For `COCCO[C@H]1CC[C@H](NC(=O)c2cc3c(c(C(F)(F)F)c2)OCCn2cncc2-3)CC1` [Compound 55A, N-((1r,4r)-4-(2-Methoxyethoxy)cyclohexyl)-8-(trifluoromethyl)-5,6-dihydrobenzo[f]imidazo[1,5-d][1,4]oxazepine-10-carboxamide], in that order: 0.03 to 0.1 µM and less than 0.001 µM.
For `CC1(NC(=O)c2cc(Cl)c3c(c2)-c2cncn2CCO3)CCCCC1` [Compound 163A, 8-Chloro-N-(1-methylcyclohexyl)-5,6-dihydrobenzo[f]imidazo[1,5-d][1,4]oxazepine-10-carboxamide], the IC50 on human CD38 was less than 0.03 µM; at mouse CD38, 0.001 to 0.01 µM.
For the molecule `CCC(O)(CN[C@H]1CC[C@H](NC(=O)c2ccc3c(c2)-c2cncn2CCO3)CC1)C(F)(F)F` (some centres unmarked) [Compound 131A, N-((1r,4r)-4-((2-Hydroxy-2-(trifluoromethyl)butyl)amino)cyclohexyl)-5,6-dihydrobenzo[f]imidazo[1,5-d][1,4]oxazepine-10-carboxamide], the IC50 on human CD38 is less than 0.03 µM; at mouse CD38, less than 0.001 µM.
As to `O=C(Nc1ccc2c(c1)CCO2)c1ccc2c(c1)-c1cncn1CCO2` [Compound 9A, N-(2,3-Dihydrobenzofuran-5-yl)-5,6-dihydrobenzo[f]imidazo[1,5-d][1,4]oxazepine-10-carboxamide], the IC50 was less than 0.03 µM on human CD38 and 0.001 to 0.01 µM on mouse CD38.
For the molecule `COCC1COc2ncc(NC(=O)c3ccc4c(c3)-c3cncn3CCO4)cc2O1` (centres unmarked) [Compound 145A, N-(2-(Methoxymethyl)-2,3-dihydro-[1,4]dioxino[2,3-b]pyridin-7-yl)-5,6-dihydrobenzo[f]imidazo[1,5-d][1,4]oxazepine-10-carboxamide], the IC50 was less than 0.03 µM at human CD38 and 0.001 to 0.01 µM at mouse CD38.
For `O=C(N[C@H]1CCC(F)(F)C1)c1ccc2c(c1)-c1cncn1CCO2` [Compound 93A, (S)—N-(3,3-Difluorocyclopentyl)-5,6-dihydrobenzo[f]imidazo[1,5-d][1,4]oxazepine-10-carboxamide] the same measures were less than 0.03 µM and 0.001 to 0.01 µM.
For `COC(C)(C)CO[C@H]1CC[C@@H](NC(=O)c2ccc3c(c2)-c2cncn2CCO3)CC1` [Compound 128A, N-((1s,4s)-4-(2-Methoxy-2-methylpropoxy)cyclohexyl)-5,6-dihydrobenzo[f]imidazo[1,5-d][1,4]oxazepine-10-carboxamide] the same measures were 0.1 to 1 µM and 0.01 to 0.1 µM.
For `O=C(NC1CCC1(F)F)c1ccc2c(c1)-c1cncn1CCO2` (centres unmarked) [Compound 139A, N-(2,2-Difluorocyclobutyl)-5,6-dihydrobenzo[f]imidazo[1,5-d][1,4]oxazepine-10-carboxamide], in that order: less than 0.03 µM and less than 0.001 µM.
Regarding `O=C(N[C@H]1CC[C@H](N2CC(C(F)(F)F)C2)CC1)c1ccc2c(c1)-c1cncn1CCO2` [Compound 107A, N-((1r,4r)-4-(3-(Trifluoromethyl)azetidin-1-yl)cyclohexyl)-5,6-dihydrobenzo[f]imidazo[1,5-d][1,4]oxazepine-10-carboxamide], the IC50 lay in the range of 0.03 to 0.1 µM on human CD38 and 0.001 to 0.01 µM at mouse CD38.
For `O=C(N[C@@H]1CCC(F)(F)C1)c1cc(F)c2c(c1)-c1cncn1CCO2` [Compound 108A, (R)—N-(3,3-Difluorocyclopentyl)-8-fluoro-5,6-dihydrobenzo[f]imidazo[1,5-d][1,4]oxazepine-10-carboxamide] the same measures were less than 0.03 µM and less than 0.001 µM.
For `O=C(Nc1ccc2ncoc2c1)c1ccc2c(c1)-c1cncn1CCO2` [Compound 39A, N-(Benzo[d]oxazol-6-yl)-5,6-dihydrobenzo[f]imidazo[1,5-d][1,4]oxazepine-10-carboxamide], in that order: less than 0.03 µM and 0.001 to 0.01 µM.
Consider `CN1CCOc2cc(NC(=O)c3ccc4c(c3)-c3cncn3CCO4)cnc21` [Compound 98A, N-(4-Methyl-3,4-dihydro-2H-pyrido[3,2-b][1,4]oxazin-7-yl)-5,6-dihydrobenzo[f]imidazo[1,5-d][1,4]oxazepine-10-carboxamide], for which the IC50 at human CD38 is less than 0.03 µM; on mouse CD38, 0.001 to 0.01 µM.
`O=C(N[C@@H]1CCS(=O)(=O)C1)c1ccc2[nH]c(=O)c3cncn3c2c1` [Compound 12A, (R)—N-(1,1-Dioxidotetrahydrothiophen-3-yl)-4-oxo-4,5-dihydroimidazo[1,5-a]quinoxaline-8-carboxamide]: the IC50 was more than 1 µM on human CD38 and more than 0.1 µM on mouse CD38.
Regarding `COCCO[C@H]1CC[C@H](NC(=O)c2ccc3c(c2)-c2cncn2CCO3)CC1` [Compound 3A, N-((1r,4r)-4-(2-Methoxyethoxy)cyclohexyl)-5,6-dihydrobenzo[f]imidazo[1,5-d][1,4]oxazepine-10-carboxamide], the results for the IC50 on human CD38 and on mouse CD38 were less than 0.03 µM and 0.001 to 0.01 µM, respectively.
Turning to `O=C(N[C@@H]1CCCOC1)c1ccc2c(c1)-n1cncc1CCO2` [Compound 15A, (R)—N-(Tetrahydro-2H-pyran-3-yl)-4,5-dihydrobenzo[b]imidazo[1,5-d][1,4]oxazepine-9-carboxamide], the IC50 on human CD38 is more than 1 µM; on mouse CD38, more than 0.1 µM.
For `O=C(NC1CCC(CC(F)(F)F)CC1)c1cc(Cl)c2c(c1)-c1cncn1CCO2` (centres unmarked) [Compound 165A, 8-Chloro-N-(4-(2,2,2-trifluoroethyl)cyclohexyl)-5,6-dihydrobenzo[f]imidazo[1,5-d][1,4]oxazepine-10-carboxamide] the same measures were less than 0.03 µM and 0.001 to 0.01 µM.
For `COC(C)(C)CO[C@H]1CC[C@H](NC(=O)c2ccc3c(c2)-c2cncn2CCO3)CC1` [Compound 127A, N-((1r,4r)-4-(2-Methoxy-2-methylpropoxy)cyclohexyl)-5,6-dihydrobenzo[f]imidazo[1,5-d][1,4]oxazepine-10-carboxamide], in that order: less than 0.03 µM and 0.001 to 0.01 µM.
For `CC(C)(O)[C@H]1CC[C@H](NC(=O)c2cc(F)c3c(c2)-c2cncn2CCO3)CC1` [Compound 114A, 8-Fluoro-N-((1r,4r)-4-(2-hydroxypropan-2-yl)cyclohexyl)-5,6-dihydrobenzo[f]imidazo[1,5-d][1,4]oxazepine-10-carboxamide] the same measures were less than 0.03 µM and less than 0.001 µM.
Consider `O=C(N[C@@H]1CCCOC1)c1ccc2[nH]c(=O)c3cncn3c2c1` [Compound 13A, (R)-4-Oxo-N-(tetrahydro-2H-pyran-3-yl)-4,5-dihydroimidazo[1,5-a]quinoxaline-8-carboxamide], for which the figures for the IC50 on human CD38 and on mouse CD38 were more than 1 µM and more than 0.1 µM, respectively.
For `CN(C)c1nc2cc(NC(=O)c3ccc4c(c3)-c3cncn3CCO4)ccc2s1` [Compound 49A, N-(2-(Dimethylamino)benzo[d]thiazol-5-yl)-5,6-dihydrobenzo[f]imidazo[1,5-d][1,4]oxazepine-10-carboxamide], in that order: less than 0.03 µM and 0.01 to 0.1 µM.
On to `O=C(N[C@H]1CC[C@@H](OC2CC(F)(F)C2)CC1)c1cc(Cl)c2c(c1)-c1cncn1CCO2` [Compound 173A, N-((1s,4s)-4-(3,3-difluorocyclobutoxy)cyclohexyl)-8-chloro-5,6-dihydrobenzo[f]imidazo[1,5-d][1,4]269xazepane-10-carboxamide], for which the values for the IC50 on human CD38 and at mouse CD38 were 0.1 to 1 µM and 0.01 to 0.1 µM, respectively.

For the origin of these results see US20260138990A1, “TRICYCLIC FUSED IMIDAZOLE COMPOUNDS AS CD38 MODULATORS AND USES THEREOF” (AEOVIAN PHARMACEUTICALS, INC., priority 2023, published 2026).
